{"source": "patent US9650616B2", "about": "“Methods for increasing grain yield” (University of Florida Research Foundation, Inc., priority 2014, dated 2017)", "key": {"[1]": {"target": "T1, maize endosperm AGPase, large subunit variant D161G (numbering of SEQ ID NO: 20) (Zea mays, UniProt P55241+Q84PF5, D161G)", "T1 sequence (P55241 46-516 D161G)": "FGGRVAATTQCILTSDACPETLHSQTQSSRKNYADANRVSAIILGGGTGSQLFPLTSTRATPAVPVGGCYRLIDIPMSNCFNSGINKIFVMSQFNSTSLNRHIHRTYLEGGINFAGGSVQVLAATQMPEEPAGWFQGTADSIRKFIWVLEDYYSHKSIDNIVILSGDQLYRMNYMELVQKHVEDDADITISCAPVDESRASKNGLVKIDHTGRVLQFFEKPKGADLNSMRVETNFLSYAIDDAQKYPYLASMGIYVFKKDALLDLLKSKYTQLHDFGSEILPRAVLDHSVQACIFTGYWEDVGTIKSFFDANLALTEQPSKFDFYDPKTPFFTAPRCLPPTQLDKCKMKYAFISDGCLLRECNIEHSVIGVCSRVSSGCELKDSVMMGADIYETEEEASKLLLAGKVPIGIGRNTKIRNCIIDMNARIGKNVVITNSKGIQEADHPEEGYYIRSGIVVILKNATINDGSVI", "T1 sequence (Q84PF5 1-474)": "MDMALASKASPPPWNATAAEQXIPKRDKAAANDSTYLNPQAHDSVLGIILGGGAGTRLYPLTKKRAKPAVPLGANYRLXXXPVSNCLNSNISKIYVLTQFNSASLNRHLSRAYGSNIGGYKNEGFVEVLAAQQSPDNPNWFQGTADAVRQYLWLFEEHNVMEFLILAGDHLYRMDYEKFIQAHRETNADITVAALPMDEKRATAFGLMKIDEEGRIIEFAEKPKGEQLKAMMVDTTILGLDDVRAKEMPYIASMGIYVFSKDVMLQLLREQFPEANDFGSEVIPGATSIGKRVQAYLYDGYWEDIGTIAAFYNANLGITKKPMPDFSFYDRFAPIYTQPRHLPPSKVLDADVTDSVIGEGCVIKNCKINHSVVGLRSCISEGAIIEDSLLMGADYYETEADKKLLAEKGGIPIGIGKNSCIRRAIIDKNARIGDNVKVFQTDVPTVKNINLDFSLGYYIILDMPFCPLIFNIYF", "test": "Apparent kinetic constants with 3-PGA, 37° C., D161G", "assay_type": "biochemical", "description": "(§1) The small and large subunit plasmids of maize endosperm AGPase (pMONcBt2 and pMONcSh2, respectively) (Giroux et al., 1996) were expressed in E. coli AC70R1-504 cells (Iglesias et al., 1993) as previously described (Boehlein et al., 2008).\n(§2) An endpoint assay was used to determine the rate of the AGPase reaction by coupling the formation of PPi to a decrease in NADH concentration (Boehlein et al., 2008). […] The Michaelis constants (Km) were obtained by varying one substrate in the presence of saturating concentrations of the second substrate. The activation constants were obtained by varying the activator at fixed levels of both substrates. All reactions were performed at 37° C. and mixes were prewarmed before starting the reaction with enzyme. […] The absorbance at 340 nm was monitored after 30 min and the amount of PPi produced was determined from a standard curve using PPi in complete reaction mixtures lacking AGPase. Blank samples contained complete reaction mixtures without enzyme and the change in absorbance between the blank and the reaction was used to calculate the amount of PPi produced. […]\n(§3) The apparent Michaelis constant and maximum velocity of each reaction was calculated from a V vs. S plots using nonlinear regression analysis and the following equation, v=VmaxS/(Km+S), where v is the measured velocity, Vmax is the maximum velocity, S is the substrate concentration. […]"}, "[2]": {"target": "T2, maize endosperm AGPase, large subunit variant GGRV (Q96G, D161G, A443R, I285V; numbering of SEQ ID NO: 20) (Zea mays, UniProt P55241+Q84PF5, A443R/D161G/I285V/Q96G)", "T2 sequence (P55241 46-516 A443R/D161G/I285V/Q96G)": "T1 sequence (P55241 46-516 D161G) with Q51G, I240V, A398R", "T2 sequence (Q84PF5 1-474)": "T1 sequence (Q84PF5 1-474)", "test": "Apparent kinetic constants with 3-PGA, 37° C., GGRV", "assay_type": "biochemical", "details": "read-out: ATP Km", "description": "as §1, §2, §3"}, "[3]": {"tested_on": "maize endosperm AGPase, evolutionary mutant SH2-E (SH2E)", "details": "absence of 3-PGA, ATP varied, Pi inhibition, NC, read-out: Km (ATP); cited from earlier work"}}, "note": "Changes are numbered by the printed parent chain. Read-outs that look alike come from different tables or passages of the source."}
{"molecule": "Nc1ncnc2c1ncn2[C@@H]1O[C@H](COP(=O)(O)OP(=O)(O)OP(=O)(O)O)[C@@H](O)[C@H]1O", "note": "[ATP]", "values": [{"measurement": "Km", "setting": "[1]; read-out: ATP Km, with 3-PGA, 37° C.", "value": 44, "unit": "µM"}, {"measurement": "Km", "setting": "[1]; read-out: Km for ATP, in the presence of 3-PGA", "value": 40, "unit": "µM"}, {"measurement": "Km", "setting": "[2]", "value": 46, "unit": "µM"}, {"measurement": "Km", "setting": "[3]", "value": 970, "unit": "µM"}]}
